Laboratory results published in patent US20100112089A1, “PEPTIDE COMPOUND AND USE THEREOF” (Takeda Pharmaceutical Company Limited, priority 2008, published 2010).
Structures can show the parent of a compound that is named as a salt. Where two headings read alike, the source gives them in different places. Square brackets hold non-standard residues; d marks the D form. Peptide text beside a SMILES is read from it. dPhe(F5) = N[C@H](Cc1c(F)c(F)c(F)c(F)c1F)C(=O)O; dBpa = N[C@H](Cc1ccc(C(=O)c2ccccc2)cc1)C(=O)O; dCha = N[C@H](CC1CCCCC1)C(=O)O

What was measured:
[1] = Pharmacokinetics of CBP501, single agent study; format: in vivo, human; conditions: for AUC(0-inf) / Cmax / clearance / half-life: human
From the text: PK was examined in cycle (cy) 1. MTD is the level below that where 2 of 3-6 patients (pts) have DLT during cy 1-2.
In the single agent study, PK was examined in cycle 1. Samples were collected on Days 1 and 15 before the start of the infusion, then at various time points over 24 hr from the start of the infusion, as described below.

[2] = Pharmacokinetics of CBP501, combination study; format: in vivo, human; conditions: for Cl / AUC(0-inf) / Cmax / clearance / half-life: combination with cisplatin; for AUC(0-inf) / Cmax / clearance / half-life: human, in vivo
[3] = system: MSTO-211H cells; assay: Water soluble tetrazolium (WST) analysis; format: cell-based; conditions: 72 hours
Procedure: (§1) The medium was replaced 24 hr after treatment, the cells were incubated for an additional 48 hr, and WST-8 solution (Kishida Chemical Co., Osaka, Japan) was added to each well. After 4 hr of incubation at 37° C., the absorbance at 450 nm was measured by microplate reader (Molecular Devices, Calif.).

[4] = system: NCI-H226 cells; assay: Water soluble tetrazolium (WST) analysis; format: cell-based; conditions: 72 hours
Procedure: as §1

[5] = Tissue distribution of 3H-labelled CBP501, NCI-H226 xenograft model; format: in vivo, SCID mice; conditions: NCI-H226 and MSTO-211H xenograft tumors, Table 15
Procedure: A suspension of NCI-H226 cells was injected subcutaneously into the flanks of six weeks old male severe […] combined immune deficiency (SCID) mice (Charles River Lab., Wilmington, Mass.). The size of tumors was measured three times a week using a caliper. The volumes were calculated using the following formula: volume (cm^3)=[width^2 (mm)×length (mm)]/2000. The relative tumor volume was expressed as the Vt/V0 index, where Vt is the tumor volume on a measured day, and V0 is the volume of the same tumor just before the first treatment. Mean relative tumor sizes with standard error of mean, SEM, were plotted. Body weight was measured three times weekly from the first treatment, and the weight change was expressed as a percentage of the initial weight. Animals were housed in accordance with guidelines from the Association for the Assessment and Accreditation of Laboratory Animal Care International, and the protocols were approved by the institutional animal care committee of CanBas Co., Ltd.
An N-terminal amino acid, p-benzoylphenylalanyl, was ^3H labeled by Daiichi Kagaku Yakuhin Co., Ltd. (Tokyo, Japan).

[6] = at the recommended dose; non-patent literature 15; read-out: Cmax in the human studies; cited from earlier work
[7] = in vivo, 0.9 mg/m2, single agent, 0.9 mg/m^2, Day 1, mean, N 4
[8] = in vivo, 0.9 mg/m2, single agent, 0.9 mg/m^2, Day 15, mean, N 3
[9] = in vivo, 7.2 mg/m2, single agent, 7.2 mg/m^2, Day 1, mean, N 3
[10] = in vivo, 7.2 mg/m2, single agent, 7.2 mg/m^2, Day 15, mean, N 3
[11] = in vivo, 9.57 mg/m2, single agent, 9.57 mg/m^2, Day 1, mean, N 3
[12] = in vivo, 9.57 mg/m2, single agent, 9.57 mg/m^2, Day 15, mean, N 2
[13] = in vivo, 12.73 mg/m2, single agent, 12.73 mg/m^2, Day 1, mean, N 3
[14] = in vivo, 12.73 mg/m2, single agent, 12.73 mg/m^2, Day 15, mean, N 3
[15] = in vivo, 16.93 mg/m2, single agent, 16.93 mg/m^2, Day 1, mean, N 2
[16] = in vivo, 16.93 mg/m2, single agent, 16.93 mg/m^2, Day 15, mean, N 3
[17] = in vivo, 22.5 mg/m2, single agent, 22.5 mg/m^2, Day 1, mean, N 7
[18] = in vivo, 22.5 mg/m2, single agent, 22.5 mg/m^2, Day 15, mean, N 5
[19] = in vivo, […]2, single agent, […]^2, Day 1, mean, N 3
[20] = in vivo, […]2, single agent, […]^2, Day 1, mean, N 4
[21] = CBP501 7.2 mg/m^2, Day 1, mean, N 3
[22] = CBP501 10.8 mg/m^2, Day 1, mean, N 5
[23] = CBP501 16.2 mg/m^2, Day 1, mean, N 3
[24] = CBP501 24.3 mg/m^2, Day 1, mean, N 2
[25] = CBP501 36.45 mg/m^2, Day 1, mean, N 5

N=C(N)NCCC[C@@H](NC(=O)[C@@H](CCCNC(=N)N)NC(=O)[C@@H](CCC(N)=O)NC(=O)[C@@H](CCCNC(=N)N)NC(=O)[C@@H](CCCNC(=N)N)NC(=O)[C@@H](CCCNC(=N)N)NC(=O)[C@@H](CC1CCCCC1)NC(=O)[C@@H](Cc1c(F)c(F)c(F)c(F)c1F)NC(=O)[C@@H](CO)NC(=O)[C@@H](Cc1c[nH]c2ccccc12)NC(=O)[C@@H](CO)NC(=O)[C@H](N)Cc1ccc(C(=O)c2ccccc2)cc1)C(=O)O [CBP501, H-(D)p-Benzoylphenylalanyl-(D)seryl-(D)tryptophyl-(D)seryl-(D)pentafluorophenylalanyl-(D)cyclohexylalanyl-(D)arginyl-(D)arginyl-(D)arginyl-(D)glutaminyl-(D)arginyl-(D)arginine acetate salt] (H-[dBpa][dS][dW][dS][dPhe(F5)][dCha][dR][dR][dR][dQ][dR][dR]-OH)
inter-patient variability within dose levels, coefficient of variation ([1]; both studies, generally in the range): 20%-40%
AUC(0-inf) [1, 7]: 178 ng·h/mL
Cmax [1, 7]: 121 ng/mL
clearance [1, 7]: 2.05 mL/min/kg
half-life [1, 7]: 0.7 h
AUC(0-inf) [1, 8]: 188 ng·h/mL
Cmax [1, 8]: 138 ng/mL
clearance [1, 8]: 1.8 mL/min/kg
half-life [1, 8]: 0.6 h
AUC(0-inf) [1, 9]: 4390 ng·h/mL
Cmax [1, 9]: 1920 ng/mL
clearance [1, 9]: 0.817 mL/min/kg
half-life [1, 9]: 1.3 h
AUC(0-inf) [1, 10]: 3660 ng·h/mL
Cmax [1, 10]: 2010 ng/mL
clearance [1, 10]: 0.933 mL/min/kg
half-life [1, 10]: 1.1 h
AUC(0-inf) [1, 11]: 6480 ng·h/mL
Cmax [1, 11]: 2890 ng/mL
clearance [1, 11]: 0.633 mL/min/kg
half-life [1, 11]: 2.5 h
AUC(0-inf) [1, 12]: 5140 ng·h/mL
Cmax [1, 12]: 2410 ng/mL
clearance [1, 12]: 0.783 mL/min/kg
half-life [1, 12]: 1.2 h
AUC(0-inf) [1, 13]: 6340 ng·h/mL
Cmax [1, 13]: 2730 ng/mL
clearance [1, 13]: 0.983 mL/min/kg
half-life [1, 13]: 1.4 h
AUC(0-inf) [1, 14]: 7660 ng·h/mL
Cmax [1, 14]: 3080 ng/mL
clearance [1, 14]: 0.8 mL/min/kg
half-life [1, 14]: 2.4 h
AUC(0-inf) [1, 15]: 14300 ng·h/mL
Cmax [1, 15]: 4920 ng/mL
clearance [1, 15]: 0.617 mL/min/kg
half-life [1, 15]: 2 h
AUC(0-inf) [1, 16]: 12600 ng·h/mL
Cmax [1, 16]: 4640 ng/mL
clearance [1, 16]: 0.6 mL/min/kg
half-life [1, 16]: 2.9 h
AUC(0-inf) [1, 17]: 16500 ng·h/mL
Cmax [1, 17]: 6080 ng/mL
clearance [1, 17]: 0.667 mL/min/kg
half-life [1, 17]: 3.2 h
AUC(0-inf) [1, 18]: 20200 ng·h/mL
Cmax [1, 18]: 7490 ng/mL
clearance [1, 18]: 0.583 mL/min/kg
half-life [1, 18]: 4 h
clearance [1, 19]: 0.917 mL/min/kg
half-life [1, 19]: 1.2 h
clearance [1, 20]: 0.867 mL/min/kg
half-life [1, 20]: 1.7 h
half-life ([1]; in vivo, […]2, single agent, […]^2, Day 15, mean, N 3): 1.6 h
differences in PK between day 1 and day 15 or between single-agent and combination administration ([1]; in vivo): No consistent differences
dose range over which dose-proportionality of Cmax and AUC0-inf was observed ([1]; in vivo): 40 fold
Cl ([1]; single agent, 0.9 mg/m^2, Day 1, mean, N 4): 5240 mL/h/m^2
Cl ([1]; single agent, 0.9 mg/m^2, Day 15, mean, N 3): 4908 mL/h/m^2
Cl ([1]; single agent, 7.2 mg/m^2, Day 1, mean, N 3): 1802 mL/h/m^2
Cl ([1]; single agent, 7.2 mg/m^2, Day 15, mean, N 3): 2041 mL/h/m^2
Cl ([1]; single agent, 9.57 mg/m^2, Day 1, mean, N 3): 1599 mL/h/m^2
Cl ([1]; single agent, 9.57 mg/m^2, Day 15, mean, N 2): 1954 mL/h/m^2
Cl ([1]; single agent, 12.73 mg/m^2, Day 1, mean, N 3): 2081 mL/h/m^2
Cl ([1]; single agent, 12.73 mg/m^2, Day 15, mean, N 3): 1677 mL/h/m^2
Cl ([1]; single agent, 16.93 mg/m^2, Day 1, mean, N 2): 1395 mL/h/m^2
Cl ([1]; single agent, 16.93 mg/m^2, Day 15, mean, N 3): 1372 mL/h/m^2
Cl ([1]; single agent, 22.5 mg/m^2, Day 1, mean, N 7): 1458 mL/h/m^2
Cl ([1]; single agent, 22.5 mg/m^2, Day 15, mean, N 5): 1206 mL/h/m^2
Cl ([1]; single agent, […]^2, Day 1, mean, N 3): 2197 mL/h/m^2
Cl ([1]; single agent, […]^2, Day 1, mean, N 4): 2908 mL/h/m^2
dose-proportionality of Cmax and AUC ([1]; single agent, days 1 and 15, over the dose range evaluated, acetate salt): showed dose-proportionality
Cl [2, 21]: 2752 mL/h/m^2
Cl [2, 22]: 2198 mL/h/m^2
Cl [2, 23]: 2124 mL/h/m^2
Cl [2, 24]: 1217 mL/h/m^2
Cl [2, 25]: 971 mL/h/m^2
Cl ([2]; CBP501 […]^2, Day 1, mean, N 6): 2526 mL/h/m^2
AUC(0-inf) [2, 21]: 2820 ng·h/mL
Cmax [2, 21]: 1770 ng/mL
clearance [2, 21]: 1.25 mL/min/kg
half-life [2, 21]: 1.7 h
AUC(0-inf) [2, 22]: 5350 ng·h/mL
Cmax [2, 22]: 2550 ng/mL
clearance [2, 22]: 0.883 mL/min/kg
half-life [2, 22]: 1.7 h
AUC(0-inf) [2, 23]: 7640 ng·h/mL
Cmax [2, 23]: 3490 ng/mL
clearance [2, 23]: 0.9 mL/min/kg
half-life [2, 23]: 2.8 h
AUC(0-inf) [2, 24]: 20200 ng·h/mL
Cmax [2, 24]: 6830 ng/mL
clearance [2, 24]: 0.567 mL/min/kg
half-life [2, 24]: 4.1 h
AUC(0-inf) [2, 25]: 39400 ng·h/mL
Cmax [2, 25]: 9490 ng/mL
clearance [2, 25]: 0.417 mL/min/kg
half-life [2, 25]: 3.7 h
clearance ([2]; CBP501 […]^2, Day 1, mean, N 6): 1.05 mL/min/kg
half-life ([2]; CBP501 […]^2, Day 1, mean, N 6): 3.9 h
dose-proportionality of Cmax and AUC ([2]; in combination with cisplatin, over the dose range evaluated, acetate salt): showed dose-proportionality
cytotoxicity of cisplatin on addition of CBP501 [3]: increased
cytotoxicity of cisplatin on addition of CBP501 [4]: increased
concentration of CBP501 in the subcutaneous tumor xenograft [5]: 1 to 2 µM
Cmax [6]: ~4 µM
